According to patent publication US12104173B2, “Method for differentiation of human pluripotent stem cell lines in suspension culture” (AGENCY FOR SCIENCE, TECHNOLOGY AND RESEARCH, priority 2018, dated 2024):

Legend:
Type in all cases: cell-based, human
[1] = system: hES-3 microcarrier aggregates; assay: BMP4-based vs CHIR-based differentiation: erythroblasts output per hPSC seeded
Source text: Six conditions were then chosen for the detailed study; conditions 1, 2 and 4 were based on BMP4/Activin A protocols, while conditions 7, 16 and 18 were CHIR-mediated protocols (Table 1).

[2] = system: hES-3-MC aggregates (agitation culture); assay: DoE: hematopoietic precursor generation, 14 days in Blast growth medium (BGM); conditions: BMP4 10 to 50 ng/ml, Activin A 0-80 ng/ml, CHIR exposure 0 to 24 hours, 2 weeks in BGM
Method: (§1) Different doses (and/or duration of exposure) of cytokines and small-molecules with known roles in inducing mesoderm and hematopoietic differentiation were evaluated using the MODDE® software for differentiation of hES-3 MC aggregate cultures initially derived under agitation. The DoE was designed to investigate effects of BMP4 (10-50 ng/ml), Activin A (0 to 80 ng/ml), CHIR (0-15 μM at 0 to 48 hours after start of mesoderm induction). These variables generated 29 culture conditions (FIG. 2A), which were tested for their effects on percent of KDR+ cells (4 days post initiation of differentiation) and the following stage of hematopoietic precursors generation (2 weeks of culture in Blast growth medium (BGM)).
(§2) Design of experiments (DoE) using a resolution IV Fractional Factorial Design was performed using the MODDE software (Sartorius Stedim Biotech, Germany) to evaluate initial BMP4, Activin A and CHIR-99021, doses and duration of exposure for their effects on the following response factors: induction of KDR+ cells 4 days post mesoderm induction or total hematopoietic precursors generated 2 weeks post differentiation. […] Computed model with R2 scores>0.5 indicate a model of significant fit, Q2 scores>0.1 indicate a significant model while Q2>0.5 indicate a good model for estimation of future prediction precision, model validity score of <0.25 indicate statistically significant model problems and reproducibility (the variation of the replicates compared to overall variability) should be greater than 0.5.
Human pluripotent stem cell-microcarrier (HPSC-MC) aggregates (derived from 7 day continuous agitation conditions), equivalent to 5×10^5 cells, were seeded and differentiated in 24-well ultra-low attachment plates with Stemline II medium using multi-factorial conditions as detailed in FIG. 2A and FIG. 6A, as well as in Table 3. […]
Following 4 days of differentiation, single cells were derived from microcarrier aggregates by treatment with TrypLE. […] Fold-expansion was calculated as total number of cells derived after 2 weeks as compared to initial seeding of 1×10^5 cells.

[3] = system: hES-3-MC aggregates (agitation culture); assay: DoE multifactorial mesoderm induction: % KDR+ cells by flow cytometry; conditions: BMP4 10 to 50 ng/ml, Activin A 0-80 ng/ml, CHIR exposure 0 to 24 hours, 4 days post initiation of differentiation
Method: as §1
Design of experiments (DoE) using a resolution IV Fractional Factorial Design was performed using the MODDE software (Sartorius Stedim Biotech, Germany) to evaluate initial BMP4, Activin A and CHIR-99021, doses and duration of exposure for their effects on the following response factors: induction of KDR+ cells 4 days post mesoderm induction or total hematopoietic precursor cells generated 2 weeks post differentiation.
as §2, with “0.5. […]” for “0.5.”

hES-3 hESC line = assay: CHIR dose: hematopoietic/erythroid differentiation of agitated hPSC-MC aggregates; conditions: optimal dose of CHIR-99021, day 4
D9 O-neg hiPSC line = assay: as above; conditions: optimal dose of CHIR-99021, day 4
[4] = hES-3 microcarrier aggregates derived from agitation condition
[5] = hES-3 microcarrier aggregates derived from static condition

For Cc1c[nH]c(-c2cnc(NCCNc3ccc(C#N)cn3)nc2-c2ccc(Cl)cc2Cl)n1 [CHIR-99021, 6-[[2-[[4-(2,4-Dichlorophenyl)-5-(5-methyl-1H-imidazol-2-yl)-2-pyrimidinyl]amino]ethyl]amino]-3-pyridinecarbonitrile], the “erythroblasts output per human pluripotent stem cell seeded” value [1, 4] was 8.0±2.1, the “erythroblasts output per human pluripotent stem cell seeded” value [1, 5] was 11.5±2.6 and the “effect of factor on hematopoietic precursor generation (DoE)” value [2] was “significant increase”. For the same molecule, the “effect of factor on percent of KDR+ cells (DoE)” value [3] was “significant increase”, the “Mesoderm induction % KDR+ PDGFRα−” value (hES-3 hESC line) was 14.6% and the “Mesoderm induction % KDR+ PDGFRα−” value (D9 O-neg hiPSC line) was 20.9%.

B1: BMP4: bone morphogenic protein; BMP4-based protocol uses 50 ng/ml BMP4 (protein, UniProt P12644 293-408, looked up)
Bone morphogenetic protein 4: SPKHHSQRARKKNKNCRRHSLYVDFSDVGWNDWIVAPPGYQAFYCHGDCPFPLADHLNSTNHAIVQTLVNSVNSSIPKACCVPTELSAISMLYLDEYDKVVLKNYQEMVVEGCGCR
B1 was tested, and the “erythroblasts output per human pluripotent stem cell seeded” value [1, 4] was 1.2±0.7, the “erythroblasts output per human pluripotent stem cell seeded” value [1, 5] was 7.7±1.9 and the “effect of factor on hematopoietic precursor generation (DoE)” value [2] was “did not significantly alter”. The “effect of factor on percent of KDR+ cells (DoE)” value [3] was “did not significantly alter”.
